This note sets out measurements from patent publication US8207310B2, “Antibodies to proteolysis inducing factor (PIF) receptor and methods of use thereof” (Ashton University, priority 2006, dated 2012).

“Also recorded” adds a separate entry of the source.

The test system of the assay is PIF receptors on C2C12 membranes. The experiment in a line: Competitive binding of [35S]PIF to C2C12 membranes. Details: species or system mouse. Conditions: result in words. On the procedure:
Competitive binding of [^35S]PIF C2C12 membranes (200 μg) in PBS (250 μl) were incubated with 1, 5, 10, 50, 100, 500 or 1000 ng of either monoclonal antibody, chondroitin, dermatan or heparan sulfate and 20 nM (480 ng) of [^35S]PIF overnight at 4° C. The bound radioactivity was determined from the radioactivity in the pellet obtained by centrifugation at 13,000 g for 5 min.
The Kaff was determined according to a modification (Clark, B. R. and Todd, C. W. Avidin as a precipitant for biotin-labelled antibody in a radioimmunoassay for carcinoembryonic antigen. Anal. Biochem., 121: 257-262, 1982.) of the method of Muller (Muller, R.
Calculation of average antibody affinity in anti-hapten sera from data obtained by competitive radioimmunoassay. J. Immunol. Methods, 34: 345-352, 1980.). Kaff=^1/(It−Tt)(1−[…]+0.5b^2) where It is the inhibitor concentration at 50% inhibition of PIF binding; Tt the total PIF concentration; b the fraction of PIF bound in the absence of inhibitor.

Take heparan sulfate: the “inhibition of binding of PIF to receptors on C2C12 membranes” value is recorded as “not”. Regarding chondroitin sulfate, the “inhibition of binding of PIF to receptors on C2C12 membranes” value is reported as “competitive inhibition; also recorded: specifically inhibited”.
